The record followed here is patent US6387907B1, “Use of serotonin agonists to alleviate disordered breathing episodes in a mammal” (The Trustees of the University of Pennsylvania, priority 1997, dated 2002).

Assay type in all cases: in vivo, English bulldog
Test [1] deals with English bulldogs. As to the kind of experiment: Diaphragm (DIA) EMG activity during wakefulness after i.v. serotonin antagonist. Here is the method: Five diaphragm electromyographic (DIA EMG) electrodes were implanted in the costal musculature of the right hemidiaphragm 7 to 9 centimeters lateral to the xyphoid process. Three other electrodes were embedded into the right sternohyoid (SH) muscle and, three more were embedded into the right geniohyoid (GH) muscle. Both SH and GH muscles are readily palpable in the English bulldog.
(§1) All studies were conducted using an unrestrained dog, either housed within a well-ventilated, electronically shielded, clear Plexiglass™ recording chamber or seated atop a table in the recording room. In either case, an investigator remained with the dog throughout the study to observe the dog's head and neck movements and to document the behavioral state of the dog. EMG signals were band-pass filtered at 50 to 2,000 Hertz. DIA EMG signals were passed through an analog EKG blanker (CWE EKG blanker; CWE, Ardmore, Pa.) and then through a third-order Paynter filter (CWE MA) having a 100-millisecond time constant to obtain a moving average of the DIA EMG. Signals of the SH and GH EMG were also passed through Paynter filters with the same time constants (100 ms) to obtain moving averages of these signals. Oxyhemoglobin saturation was measured continuously with a Biox IIA oximeter attached to the dog's pinna. Signals for the GH EMG, GH moving average (MA), SH EMG, SH MA, DIA EMG, DIA MA, and oxyhemoglobin saturations were recorded polygraphically (10 millimeters per second) using a chart recorder with high frequency response, i.e., as much as 10 kHz (Gould ES1000; Gould Instruments, Cleveland, Ohio). Signals were also recorded on analog tape using an eight-channel FM tape recorder (A. R. Vetter, Roseburg, Pa.).
(§2) After obtaining baseline recordings of all variables for at least 5 minutes during quiet wakefulness and after obtaining recordings during the 5 minutes following administration of a saline control injection, 0.25 to 0.50 milligrams per kilogram body weight of one of the serotonin antagonists was administered to each dog through a peripheral intravenous line. All variables were continuously recorded. Injections were repeated every 6 minutes either until a total dose of 1 milligram per kilogram body weight had been administered or until the oxygen saturations fell below 85%. These limits were deemed to ensure the dogs' safety, based on an initial study using one dog. This dog, EBD-G was hypoxic at baseline and developed profound reductions in UAW muscle activity with desaturations to 75% after a total dose of 1.0 milligram per kilogram body weight of methysergide. The interval between repeated injections was selected to be 6 minutes to allow for 5 minute sampling periods for each dose. The duration of action of serotonin antagonists is known to be greater than 60 minutes (Bredberg et al., supra; Devaud et al., supra).
The effects of serotonin antagonists on diaphragm activity were similarly analyzed. Briefly, the measures of diaphragm activity were the peak amplitudes for all respiratory bursts in each condition. […] Acquisition of these measures has also been previously described (Hendricks et al., 1991, Am. Rev. Respir. Dis. 144:1112-1120). Mean values across all respiratory bursts of a 5 minute sample period were determined for each dog, and these values were used to perform repeated measures of ANOVA comparing baseline values with post-administration values.

For test [2], the system named is English bulldogs. As to the kind of experiment: Waking oxyhemoglobin saturation (SaO2) after i.v. serotonin antagonist. As to conditions: mean±SE. Here is the method:
as §1, §2
The effects of ritanserin and methysergide on oxyhemoglobin saturations were analyzed in a similar fashion; i.e., repeated measures of ANOVA for baseline and drug dose conditions. Oxyhemoglobin saturation was measured every 10 scans.

For test [3], the system named is English bulldogs. Nature of the test: Cine CT imaging of the upper airway before and after ritanserin. As to conditions: 0.5 mg/kg i.v. Here is the method:
The effect of administering a serotonin antagonist on upper airway dimensions during a respiratory cycle was determined by performing cinematic computed tomography (cine CT) on dogs before and after administration of the antagonists. Cine CT allows both high spatial and temporal resolution (Shepard et al., 1990, In: Proceedings of the First International Symposium on Sleep and Respiration, New York, 273-282; Schwab et al., 1993, Am. Rev. Respir. Dis. 148:1385-1400), and has been used to define dynamic changes in the upper airways of humans in relation to the phases of the respiratory cycle (Schwab et al., 1993, Am. Rev. Respir. Dis. 148:1385-1400; Galvin et al., 1989, Radiology 171:775-778; Schwab et al., 1993, J. Appl. Physiol. 74:1504-1514). An Imatron C-100 ultrafast scanner (Imatron Inc., South San Francisco, Calif.) was used for these studies.
Dogs were studied during wakefulness. All dogs were trained prior to the study to lie quietly on a table similar to the CT scanner table for periods as long as one hour. However, to maintain constant head and body position throughout the study, each dog wore a nylon vest secured to the table at the shoulder and hips. Lateral radiographs of the neck were performed initially so that the head and neck were positioned with a 110 to 130 degree angle between the hard palate and the upper trachea.
Once the angle was confirmed, the head was gently secured in place to the scanner table with elastic dressing tape. With the dog comfortably secured in place, a scout filming of the airways was performed with 40 consecutive 3-millimeter-thick coronal slices imaged from the region of the nasopharynx through the larynx. For each dog, these images were used to select four standard areas of study for all dogs. […] For each dog, the areas which were imaged included the posterior nasopharynx (at the level of pterygoid fossa in the dog), the retropalatal high area (at the midhyoid arch level), the retropalatal low area (at the level of the anterior hyoid bone), and the larynx.
Prior to imaging, each dog was connected as described above for monitoring geniohyoid, sternohyoid, and diaphragm muscle activity, respiratory inductive plethysmography, and oxyhemoglobin saturation. During quiet breathing, 20 consecutive images at 0.4-second intervals were obtained simultaneously at each of the four described levels. This program allowed for the description of the dynamic changes in airway dimensions over four to seven breaths at all four anatomic levels simultaneously. The image acquisition time for each radiograph was 50 milliseconds, and images were 3 millimeters thick. Imaging studies were rejected and repeated if the respiratory activity was interrupted at any time during imaging by swallowing, sighing (defined for this study as a diaphragm burst 200% greater in amplitude than the previous 10 bursts), licking, or panting, the latter being defined as a respiratory frequency of more than 60 diaphragmatic respiratory bursts per minute. Cine CT scanner impulses marking the timing for all images were transmitted to the polygraph with continuing signals of all objective measures, i.e., GH, SH, and DIA EMG activity, oxyhemoglobin saturation, and chest wall plethysmography. […]
This study quantified the effects of the serotonin antagonist, ritanserin, on the cross-sectional area of the upper airway and its dynamic changes during the respiratory cycle. […]

Each structure is given as a SMILES string.

For `Cc1nc2sccn2c(=O)c1CCN1CCC(=C(c2ccc(F)cc2)c2ccc(F)cc2)CC1` [ritanserin], the “DIA peak amplitude as percentage of the baseline value” is on record as 85.76±3.30% in test [1] (0.25 mg/kg i.v.), 95.22±5.81% in test [1] (0.50 mg/kg i.v.) and 87.33±5.18% in test [1] (0.75 mg/kg i.v. cumulative). Besides, the “DIA peak amplitude, mean” value in test [1] (0.25 mg/kg i.v., mean±SE, six dogs, baseline 17.63±2.79) was 15.03±2.45 arbitrary units; in test [1] (0.50 mg/kg i.v., mean±SE, baseline ritanserin 17.63±2.79, methysergide 7.07±2.37), 16.12±2.30 arbitrary units; in test [1] (0.75 mg/kg i.v. cumulative, mean±SE, six dogs, baseline 17.63±2.79) it was 14.98±2.06 arbitrary units. Besides, the “percent suppression of DIA activity” value in test [1] (0.25 mg/kg i.v., mean±SE, quiet waking, dogs with GH data) is given as 17.0±3.6%. The “mean SaO2” value was determined as 88.5±0.8% in test [2] (0.25 mg/kg i.v., baseline 92.1±0.6); 87.6±1.2% in test [2] (0.50 mg/kg i.v., baseline ritanserin 92.1±0.6, methysergide 90.3±2.7); 88.6±0.5% in test [2] (0.75 mg/kg i.v. cumulative, baseline 92.1±0.6). Further, the “GH peak amplitude suppressed by” value in test [3] (mean values for the two dogs) is 51.1±1.8%. The “chest wall respiratory movement amplitude reduced by” value in test [3] (two dogs) is recorded as 59.9%. Moreover, the “upper airway parameters during expiration” value in test [3] (two dogs) is reported as “no significant changes”. Besides, the “mean SaO2 after administration” value in test [3] (two dogs, before 92.8±1.8) amounted to 86.2±4.7%. The “airway CSA during both stages of inspiration” value in test [3] (two dogs, individual ANOVAs p<0.01) is “significant reduction”.
